Test [1] concerns the target PI3 Kinase α (Homo sapiens, UniProt P42336). The experiment in a line: Fluorescence polarization assay for PI3K (PI3 Kinase α). The following applies: diC8-PI(4,5)P2 substrate, 25 μM ATP, one hour at 25° C. The test is classed as biochemical.
Description: (§1) Nunc 384 well black polypropylene fluorescent plates were used for PI3K assays. Reactions were quenched by the addition of EDTA to a final concentration of 10 μM. Final reaction volumes were 10 ml. […] Reactions were allowed to proceed for one hour at 25° C. After I hour, GST-tagged GRP1 (general receptor for phosphoinositides) PH domain fusion protein was added to a final concentration of 100 nM, and BODIPY-TMRI(1,3,4,5)P4 (Echelon) was also added to a final concentration of 5 nM. Final sample volumes were 25 μl with a final DMSO concentration of 0.8%. Assay Plates were read on PerkinElmer Envision plate readers with appropriate filters for Tamra [BODIPY-TMRI(1,3,4,5)P4]. Data obtained were used to calculate enzymatic activity and enzyme inhibition by inhibitor compounds.
Test [2] addresses PI3 Kinase γ (Homo sapiens, UniProt P48736). Kind of test: Fluorescence polarization assay for PI3K (PI3 Kinase γ). The test is classed as biochemical. The conditions noted are these: diC8-PI(4,5)P2 substrate, 25 μM ATP, one hour at 25° C. Background: Fluorescence polarisation rises when a labelled molecule tumbles more slowly, as on binding a larger partner.
Description: as §1

pIC50: −log10 of the molar value.

Chain of PI3 Kinase γ (P48736 whole entry): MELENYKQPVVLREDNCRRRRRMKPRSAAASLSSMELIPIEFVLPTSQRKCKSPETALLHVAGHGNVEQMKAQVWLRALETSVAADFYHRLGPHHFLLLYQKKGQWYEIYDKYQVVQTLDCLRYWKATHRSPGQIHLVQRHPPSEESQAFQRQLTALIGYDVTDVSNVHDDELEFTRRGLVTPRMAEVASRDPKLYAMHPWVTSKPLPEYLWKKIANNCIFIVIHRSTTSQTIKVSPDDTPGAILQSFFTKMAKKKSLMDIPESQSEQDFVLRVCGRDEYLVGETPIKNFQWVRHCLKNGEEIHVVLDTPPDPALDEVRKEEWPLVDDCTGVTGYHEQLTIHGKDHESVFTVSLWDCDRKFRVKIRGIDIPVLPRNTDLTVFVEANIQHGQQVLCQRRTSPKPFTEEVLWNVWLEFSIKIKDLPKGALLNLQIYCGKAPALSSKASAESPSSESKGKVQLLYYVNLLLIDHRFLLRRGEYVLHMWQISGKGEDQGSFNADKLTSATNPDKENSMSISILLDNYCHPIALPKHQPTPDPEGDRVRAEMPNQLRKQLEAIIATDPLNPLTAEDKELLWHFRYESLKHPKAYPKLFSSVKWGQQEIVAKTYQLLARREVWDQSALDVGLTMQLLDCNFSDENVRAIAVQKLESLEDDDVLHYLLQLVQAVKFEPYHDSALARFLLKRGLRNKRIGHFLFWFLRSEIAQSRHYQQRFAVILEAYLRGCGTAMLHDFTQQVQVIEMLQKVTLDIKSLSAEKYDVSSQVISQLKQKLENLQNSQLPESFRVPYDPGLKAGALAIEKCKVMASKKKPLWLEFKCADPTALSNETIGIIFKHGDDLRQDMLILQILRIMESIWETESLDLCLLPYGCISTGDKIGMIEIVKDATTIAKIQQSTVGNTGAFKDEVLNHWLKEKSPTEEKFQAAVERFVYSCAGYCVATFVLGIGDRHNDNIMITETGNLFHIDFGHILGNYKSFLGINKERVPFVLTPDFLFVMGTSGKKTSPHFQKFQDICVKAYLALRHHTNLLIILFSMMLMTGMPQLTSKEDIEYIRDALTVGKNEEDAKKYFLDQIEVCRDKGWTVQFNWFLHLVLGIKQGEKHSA
Chain of PI3 Kinase α (P42336 whole entry): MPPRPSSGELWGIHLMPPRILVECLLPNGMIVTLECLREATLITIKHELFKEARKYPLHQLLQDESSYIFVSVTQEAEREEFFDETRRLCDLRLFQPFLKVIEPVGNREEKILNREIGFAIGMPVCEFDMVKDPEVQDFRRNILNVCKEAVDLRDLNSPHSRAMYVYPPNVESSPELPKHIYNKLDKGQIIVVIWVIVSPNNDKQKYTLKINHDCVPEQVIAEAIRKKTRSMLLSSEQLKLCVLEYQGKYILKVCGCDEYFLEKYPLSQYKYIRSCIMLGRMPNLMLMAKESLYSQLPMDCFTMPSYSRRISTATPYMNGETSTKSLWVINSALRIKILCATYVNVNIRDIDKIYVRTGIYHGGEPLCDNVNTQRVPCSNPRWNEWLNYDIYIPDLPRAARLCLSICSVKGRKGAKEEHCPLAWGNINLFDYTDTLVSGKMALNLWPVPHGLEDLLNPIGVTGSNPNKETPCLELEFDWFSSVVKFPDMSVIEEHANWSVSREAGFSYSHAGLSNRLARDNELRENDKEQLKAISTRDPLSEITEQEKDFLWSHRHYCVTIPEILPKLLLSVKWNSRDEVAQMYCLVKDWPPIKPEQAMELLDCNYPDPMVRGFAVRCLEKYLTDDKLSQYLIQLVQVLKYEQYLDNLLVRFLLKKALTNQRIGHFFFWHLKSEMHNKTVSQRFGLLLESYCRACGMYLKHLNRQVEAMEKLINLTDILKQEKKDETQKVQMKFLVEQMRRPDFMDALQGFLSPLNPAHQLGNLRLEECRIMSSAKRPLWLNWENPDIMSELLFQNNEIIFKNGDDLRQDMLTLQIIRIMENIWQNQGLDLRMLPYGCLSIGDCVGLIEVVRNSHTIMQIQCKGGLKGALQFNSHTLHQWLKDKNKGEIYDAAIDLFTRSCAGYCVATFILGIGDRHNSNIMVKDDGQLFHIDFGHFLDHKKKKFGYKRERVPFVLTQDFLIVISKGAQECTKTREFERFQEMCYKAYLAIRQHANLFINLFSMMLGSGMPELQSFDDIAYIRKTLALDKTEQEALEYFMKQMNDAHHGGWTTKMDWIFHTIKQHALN
Chain of PI3 Kinase α (P27986 whole entry partner): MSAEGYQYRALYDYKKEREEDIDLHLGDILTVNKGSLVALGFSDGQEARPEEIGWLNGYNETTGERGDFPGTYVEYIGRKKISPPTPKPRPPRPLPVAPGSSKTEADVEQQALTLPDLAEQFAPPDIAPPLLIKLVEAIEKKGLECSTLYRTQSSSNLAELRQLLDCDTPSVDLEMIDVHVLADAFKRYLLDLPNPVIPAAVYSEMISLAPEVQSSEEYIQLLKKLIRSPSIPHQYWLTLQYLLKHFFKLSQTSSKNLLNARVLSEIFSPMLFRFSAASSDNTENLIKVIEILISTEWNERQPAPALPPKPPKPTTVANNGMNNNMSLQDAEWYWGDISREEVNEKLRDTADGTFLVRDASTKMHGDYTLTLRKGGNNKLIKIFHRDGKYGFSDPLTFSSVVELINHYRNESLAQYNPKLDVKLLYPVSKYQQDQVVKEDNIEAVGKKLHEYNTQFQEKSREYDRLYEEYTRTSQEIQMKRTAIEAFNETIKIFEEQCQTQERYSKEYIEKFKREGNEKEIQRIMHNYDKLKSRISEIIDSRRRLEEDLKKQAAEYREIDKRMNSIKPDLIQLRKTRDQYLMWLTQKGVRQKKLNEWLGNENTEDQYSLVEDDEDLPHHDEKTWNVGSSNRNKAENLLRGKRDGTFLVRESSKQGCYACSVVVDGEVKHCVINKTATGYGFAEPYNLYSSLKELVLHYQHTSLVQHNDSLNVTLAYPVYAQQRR

As usually defined, the pIC50 is −log10 of the IC50, conventionally taken in molar units. A lower pIC50 goes with a large IC50. For the compound `CCn1nnc2c(N3CCOCC3)nc(-c3ccc(NC(=O)Nc4ccc(C(=O)NCCN5CCOCC5)cc4)cc3)nc21` [Example 53, 4-({[4-(3-ethyl-7-morpholin-4-yl-3H-[1,2,3]triazolo[4,5-d]pyrimidin-5-yl)phenyl]carbamoyl}amino)-N-(2-morpholin-4-ylethyl)benzamide], the pIC50 is 8.46 in test [1] and 7.54 in test [2].

As for `Oc1cncc(-c2nc(N3CCOCC3)c3nnn(C4CCN(Cc5ccc(-c6ccncc6)cc5)CC4)c3n2)c1` [Example 31, 5-{7-morpholin-4-yl-3-[1-(4-pyridin-4-ylbenzyl)piperidin-4-yl]-3H-[1,2,3]triazolo[4,5-d]pyrimidin-5-yl}pyridin-3-ol], the figures for the negative-log IC50 (pIC50) in test [1] and in test [2] were 6.53 and 5.64, respectively.

For `CC(=O)NCCn1nnc2c(N3CCOCC3)nc(-c3cccc(O)c3)nc21` [Example 7, N-{2-[5-(3-hydroxyphenyl)-7-morpholin-4-yl-3H-[1,2,3]triazolo[4,5-d]pyrimidin-3-yl]ethyl}acetamide], the pIC50 in test [1] was 6.77; in test [2] it was 6.39.

On to `CCn1nnc2c(N3CCOCC3)nc(-c3ccc(NC(=O)Nc4ccc(C(=O)N5CCN(c6ccccn6)CC5)cc4)cc3)nc21` [Example 58, 1-[4-(3-ethyl-7-morpholin-4-yl-3H-[1,2,3]triazolo[4,5-d]pyrimidin-5-yl)phenyl]-3-{4-[(4-pyridin-2-ylpiperazin-1-yl)carbonyl]phenyl}urea], for which the pIC50 in test [1] was 8.60; in test [2], 7.85.

For the compound `O=C(Cc1ccccc1)N1CCN(CCn2nnc3c(N4CCOCC4)nc(-c4cccc(O)c4)nc32)CC1` [Example 104, 3-(7-morpholin-4-yl-3-{2-[4-(phenylacetyl)piperazin-1-yl]ethyl}-3H-[1,2,3]triazolo[4,5-d]pyrimidin-5-yl)phenol], the results for the pIC50 in test [1] and in test [2] were 5.93 and 5.52, respectively.

Turning to `CN(C)CCNC(=O)Nc1ccc(-c2nc(N3CCOCC3)c3nnn(C4CCN(Cc5ccc(-c6ccncc6)cc5)CC4)c3n2)cc1` [Example 160, 1-(2-(dimethylamino)ethyl)-3-(4-(7-morpholino-3-(1-(4-(pyridin-4-yl)benzyl)piperidin-4-yl)-3H-[1,2,3]triazolo[4,5-d]pyrimidin-5-yl)phenyl)urea], the pIC50 in test [1] is 7.89; in test [2] it was 6.96.

`OCc1cccc(-c2nc(N3CCOCC3)c3nnn(CCCN4CCCC4)c3n2)c1` [Example 10, {3-[7-morpholin-4-yl-3-(3-pyrrolidin-1-ylpropyl)-3H-[1,2,3]triazolo[4,5-d]pyrimidin-5-yl]phenyl}methanol]: the negative logarithm of the IC50 (pIC50) was 6.88 in test [1] and 6.81 in test [2].

Take `CNC(=O)Nc1ccc(-c2nc(N3CCOCC3)c3nnn(C4CCN(C(=O)OC(C)(C)C)CC4)c3n2)cc1` [Example 168, tert-butyl 4-(5-{4-[(methylcarbamoyl)amino]phenyl}-7-morpholin-4-yl-3H-[1,2,3]triazolo[4,5-d]pyrimidin-3-yl)piperidine-1-carboxylate]: the figures for the pIC50 in test [1] and in test [2] were 6.70 and 5.49, respectively.

For `CN(C)CCNC(=O)Nc1ccc(-c2nc(N3CCOCC3)c3nnn(C4CCN(Cc5cccnc5)CC4)c3n2)cc1` [Example 154, 1-(2-(dimethylamino)ethyl)-3-(4-(7-morpholino-3-(1-(pyridin-3-ylmethyl)piperidin-4-yl)-3H-[1,2,3]triazolo[4,5-d]pyrimidin-5-yl)phenyl)urea], the pIC50 in test [1] was 6.69; in test [2], 7.24.

In the case of `Oc1cccc(-c2nc(N3CCOCC3)c3nnn(C4CN(Cc5ccccc5)C4)c3n2)c1` [Example 127, 3-[3-(1-benzylazetidin-3-yl)-7-morpholin-4-yl-3H-[1,2,3]triazolo[4,5-d]pyrimidin-5-yl]phenol], the negative-log IC50 (pIC50) was 6.87 in test [1] and 5.91 in test [2].

On to `O=C(c1ccc(Cn2nnc3c(N4CCOCC4)nc(-c4cccc(O)c4)nc32)cc1)N1CCCCC1` [Example 227, 3-{7-morpholin-4-yl-3-[4-(piperidin-1-ylcarbonyl)benzyl]-3H-[1,2,3]triazolo[4,5-d]pyrimidin-5-yl}phenol], for which the negative-log IC50 (pIC50) in test [1] is 5.95; in test [2], 6.02.

For `CN(C)CCCCn1nnc2c(N3CCOCC3)nc(-c3cccc(O)c3)nc21` [Example 202, 3-{3-[4-(dimethylamino)butyl]-7-morpholin-4-yl-3H-[1,2,3]triazolo[4,5-d]pyrimidin-5-yl}phenol], the pIC50 in test [1] is 6.65; in test [2], 6.11.

`Oc1cccc(-c2nc(N3CCOCC3)c3nnn(CCN4CCNCC4)c3n2)c1` [Example 98, 3-[7-morpholin-4-yl-3-(2-piperazin-1-ylethyl)-3H-[1,2,3]triazolo[4,5-d]pyrimidin-5-yl]phenol]: the pIC50 in test [1] was 7.27; in test [2] it was 6.23.

With `CN1CCC(n2nnc3c(N4CCOCC4)nc(-c4ccc(NC(=O)Nc5cccnc5)cc4)nc32)CC1` [Example 164, 1-{4-[3-(1-methylpiperidin-4-yl)-7-morpholin-4-yl-3H-[1,2,3]triazolo[4,5-d]pyrimidin-5-yl]phenyl}-3-pyridin-3-ylurea], the negative-log IC50 (pIC50) in test [1] was 7.66; in test [2], 6.83.

`CC(C)(C)NC(=O)c1ccc(Cn2nnc3c(N4CCOCC4)nc(-c4cccc(O)c4)nc32)cc1` [Example 222, N-tert-butyl-4-{[5-(3-hydroxyphenyl)-7-morpholin-4-yl-3H-[1,2,3]triazolo[4,5-d]pyrimidin-3-yl]methyl}benzamide]: the pIC50 in test [1] was 6.38; in test [2], 5.85.

Take `Oc1cncc(-c2nc(N3CCOCC3)c3nnn(C4CCN(CN5CCN(Cc6ccccc6)CC5)CC4)c3n2)c1` [Example 28, 5-(3-{1-[(4-benzylpiperazin-1-yl)methyl]piperidin-4-yl}-7-morpholin-4-yl-3H-[1,2,3]triazolo[4,5-d]pyrimidin-5-yl)pyridin-3-ol]: the negative logarithm of the IC50 (pIC50) was 6.00 in test [1] and 5.05 in test [2].

As for `OCc1cccc(-c2nc(N3CCOCC3)c3nnn(-c4cccc(CO)c4)c3n2)c1` [Example 117, [(7-morpholin-4-yl-3H-[1,2,3]triazolo[4,5-d]pyrimidine-3,5-diyl)di-3,1-phenylene]dimethanol], the pIC50 is 7.42 in test [1] and 6.84 in test [2].

Take `Cc1ccc(CN2CCC(n3nnc4c(N5CCOCC5)nc(-c5cncc(O)c5)nc43)CC2)s1` [Example 21, 5-(3-{1-[(5-methyl-2-thienyl)methyl]piperidin-4-yl}-7-morpholin-4-yl-3H-[1,2,3]triazolo[4,5-d]pyrimidin-5-yl)pyridin-3-ol]: the negative-log IC50 (pIC50) in test [1] was 7.18; in test [2], 6.62.

On to `Nc1ccc(-c2nc(N3CCOCC3)c3nnn(CC(F)(F)F)c3n2)cc1` [Example 133, 4-[7-morpholin-4-yl-3-(2,2,2-trifluoroethyl)-3H-[1,2,3]triazolo[4,5-d]pyrimidin-5-yl]aniline], for which the negative logarithm of the IC50 (pIC50) in test [1] is 6.43; in test [2], 5.86.

With `COC(=O)NC(=O)Nc1ccc(-c2nc(N3CCOCC3)c3nnn(C4CCN(C(=O)OC(C)(C)C)CC4)c3n2)cc1` [Example 169, tert-butyl 4-[5-(4-{[(methoxycarbonyl)carbamoyl]amino}phenyl)-7-morpholin-4-yl-3H-[1,2,3]triazolo[4,5-d]pyrimidin-3-yl]piperidine-1-carboxylate], the negative logarithm of the IC50 (pIC50) in test [1] and in test [2] was under 5.00 in each case.

For the origin of these results see patent US20090181963A1, “3H-[1,2,3]TRIAZOLO[4,5-D]PYRIMIDINE COMPOUNDS, THEIR USE AS mTOR KINASE AND PI3 KINASE INHIBITORS, AND THEIR [sequence]” (Wyeth, priority 2008, published 2009).
